Assay results as given in patent US12612412B2, “Antiviral heterocyclic compounds” (Enanta Pharmaceuticals, Inc., priority 2021, dated 2026).

What follows are molecules tested on genotype A, "Long" strain RSV (assay: RSV-A assay (CPE protection in Hep-2 cells, ATPlite readout)). Settings: human respiratory syncytial virus, RSV-A Long strain, MOI 0.1, CPE protection, read-out: Human RSV-A (“Long”) EC50.
Type: cell-based, Human respiratory syncytial virus (HRSV)
Outline: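 In this cytopathic-effect protection format, infected Hep-2 cultures (MOI 0.1) are exposed to compound for 5 days. Surviving cell ATP is quantified with ATPlite, and EC50 is determined.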
Molecule COc1cc(C(=O)NC[C@](O)(c2cc3c(c(-c4ccc(F)cc4)n2)OC[C@]3(C)C(N)=O)C(F)(F)F)cn2nc(C3CC3)cc12 [Example 879] has an EC50 of over 200 nM. COc1cc(C(=O)NC[C@](O)(c2cc3c(c(-c4ccc(F)c(Cl)c4)n2)OC[C@]3(C)C(N)=O)C(F)(F)F)cn2nc(C3CC3)cc12 [Example 880] gave an EC50 of over 200 nM. In the case of COc1cc(C(=O)NC[C@](O)(c2cc3c(c(-c4ccc(F)cc4)n2)OC[C@]3(C)C(N)=O)C(F)(F)F)cn2nc(N)cc12 [Example 881], the EC50 is reported as under 200 nM. COc1cc(C(=O)NCC(O)(c2cc3c(c(Br)n2)OC[C@]3(C)C(N)=O)C(F)(F)F)cc2cn(C3CC3)nc12 (stereo partly drawn) [Example 890] gave an EC50 of over 200 nM. Molecule COc1cc(C(=O)NC[C@@](O)(c2cc3c(c(-c4ccc(C5CC5)cc4)n2)OC[C@]3(C)C(N)=O)C(F)(F)F)cc2cn(C3CC3)nc12 [Example 892] has an EC50 of over 200 nM. With COc1cc(C(=O)NC[C@@](O)(c2cc3c(c(-c4ccc5c(c4)OC(F)(F)O5)n2)OC[C@]3(C)C(N)=O)C(F)(F)F)cc2cn(C3CC3)nc12 [Example 894] the EC50 was over 200 nM. With COc1cc(C(=O)NC[C@@](O)(c2cc3c(c(-c4ccc(C(F)F)cc4)n2)OC[C@]3(C)C(N)=O)C(F)(F)F)cc2cn(C3CC3)nc12 [Example 895] the EC50 was over 200 nM. With COc1cc(C(=O)NC[C@@](O)(c2cc3c(c(-c4ccc(OC(F)(F)F)cc4)n2)OC[C@]3(C)C(N)=O)C(F)(F)F)cc2cn(C3CC3)nc12 [Example 897] the EC50 was over 200 nM. For COc1cc(C(=O)NC[C@@](O)(c2cc3c(c(-c4ccc(F)cc4F)n2)OC[C@]3(C)C(N)=O)C(F)(F)F)cc2cn(C3CC3)nc12 [Example 900], the EC50 was under 200 nM. Work on COc1cc(C(=O)NC[C@](O)(c2cc3c(c(-c4ccc5oc(C)nc5c4)n2)OC[C@]3(C)C(N)=O)C(F)(F)F)cc2cn(C3CC3)nc12 [Example 902] yielded an EC50 of over 200 nM. COc1cc(C(=O)NC[C@](O)(c2cc3c(c(-c4cn(C)nc4C(F)(F)F)n2)OC[C@]3(C)C(N)=O)C(F)(F)F)cc2cn(C3CC3)nc12 [Example 904] gave an EC50 of over 200 nM. Molecule COc1ccc(-c2nc([C@](O)(CNC(=O)c3cc(OC)c4nn(C5CC5)cc4c3)C(F)(F)F)cc3c2OC[C@]3(C)C(N)=O)cc1OC [Example 905] has an EC50 of over 200 nM. COc1ccc(-c2nc([C@@](O)(CNC(=O)c3cc(OC)c4nn(C5CC5)cc4c3)C(F)(F)F)cc3c2OC[C@]3(C)C(N)=O)cc1OC [Example 906] gave an EC50 of under 200 nM. COc1cc(C(=O)NC[C@@](O)(c2cc3c(c(-c4ccc5c(c4)OCO5)n2)OC[C@]3(C)C(N)=O)C(F)(F)F)cc2cn(C3CC3)nc12 [Example 907] showed an EC50 of over 200 nM. COc1cc(C(=O)NC[C@@](O)(c2cc3c(c(-c4ccccc4F)n2)OC[C@]3(C)C(N)=O)C(F)(F)F)cc2cn(C3CC3)nc12 [Example 910] gave an EC50 of over 200 nM. For COc1cc(C(=O)NC[C@](O)(c2cc3c(c(-c4ccc(F)cc4)n2)OC[C@]3(C(N)=O)C(F)F)C(F)(F)F)cc2cn(C3CC3)nc12 [Example 998], the EC50 was under 200 nM. COc1cc(C(=O)NC[C@](O)(c2cc3c(c(-c4ccc(F)c(Cl)c4)n2)OC[C@@]3(CF)C(N)=O)C(F)(F)F)ccc1OC1CC1 [Example 1048] showed an EC50 of over 200 nM. COc1cc(C(=O)NC[C@](O)(c2cc3c(c(-c4ccc(F)c(Cl)c4)n2)OC[C@]3(C)C(N)=O)C(F)(F)F)cc2cc(C)c(Cl)nc12 [Example 1071] was tested, and the EC50 was under 200 nM. Molecule COc1cc(C(=O)NC[C@](O)(c2cc3c(c(-c4cccc(F)c4Cl)n2)OC[C@]3(C)C(N)=O)C2CC2)cc2cc(C)c(Cl)nc12 [Example 1073] has an EC50 of under 200 nM. With Cc1cc2cc(C(=O)NC[C@](O)(c3cc4c(c(-c5ccc(F)cc5)n3)OC[C@]4(C)C(N)=O)C(F)(F)F)cc(OC3CC3)c2nc1Cl [Example 1075] the EC50 was under 200 nM. For Cc1cc2cc(C(=O)NC[C@](O)(c3cc4c(c(-c5ccc(F)c(Cl)c5)n3)OC[C@]4(C)C(N)=O)C(F)(F)F)cc(OC3CC3)c2nc1Cl [Example 1076], the EC50 was under 200 nM. Molecule Cc1cc2cc(C(=O)NC[C@](O)(c3cc4c(c(-c5ccc(F)c(Cl)c5F)n3)OC[C@]4(C)C(N)=O)C3CC3)cc(OC3CC3)c2nc1Cl [Example 1077] has an EC50 of under 200 nM. Work on Cc1cc2cc(C(=O)NC[C@](O)(c3cc4c(c(-c5cccc(F)c5Cl)n3)OC[C@]4(C)C(N)=O)C3CC3)cc(OC3CC3)c2nc1Cl [Example 1078] yielded an EC50 of under 200 nM. In the case of Cc1cc2cc(C(=O)NC[C@](O)(c3cc4c(c(-c5ccc6c(c5)OC(F)(F)O6)n3)OC[C@]4(C)C(N)=O)C3CC3)cc(OC3CC3)c2nc1Cl [Example 1079], the EC50 is reported as under 200 nM. For C[C@]1(C(N)=O)COc2c1cc([C@@](O)(CNC(=O)c1cc(OC3CC3)c3nn(C(F)F)cc3c1)C1CC1)nc2-c1cc(Br)c(F)cc1F [Example 1086], the EC50 was under 200 nM. For COc1cc(C(=O)NC[C@](O)(c2cc3c(c(-c4cccc(F)c4Cl)n2)OC[C@]3(C)C(N)=O)C(F)(F)F)cc2cn(C3CC3)nc12 [Example 1107], the EC50 was under 200 nM. For COc1cc(C(=O)NC[C@](O)(c2cc3c(c(-c4ccc(F)cc4)n2)OC[C@]3(C)C(N)=O)C2CC2)cc2cc(C)nnc12 [Example 1108], the EC50 was under 200 nM. Work on COc1cc(C(=O)NC[C@](O)(c2cc3c(c(-c4ccc(F)cc4)n2)OC[C@]3(C)C(N)=O)C2CC2)cc2cc(C3CC3)nnc12 [Example 1109] yielded an EC50 of under 200 nM. Work on COc1cc(C(=O)NC[C@](O)(c2cc3c(c(-c4ccc5c(c4)OC(F)(F)O5)n2)OC[C@]3(C)C(N)=O)C(F)(F)F)cc2cc(C)nnc12 [Example 1110] yielded an EC50 of under 200 nM. In the case of COc1cc(C(=O)NC[C@](O)(c2cc3c(c(-c4ccc5c(c4)OC(F)(F)O5)n2)OC[C@]3(C)C(N)=O)C(F)(F)F)cc2cc(C3CC3)nnc12 [Example 1111], the EC50 is reported as under 200 nM. COc1cc(C(=O)NC[C@](O)(c2cc3c(c(-c4cc(Cl)c(F)cc4F)n2)OC[C@]3(C)C(N)=O)C2(F)CC2)cc2cn(C(F)F)nc12 [Example 1112] gave an EC50 of under 200 nM. With COc1cc(C(=O)NC[C@](O)(c2cc3c(c(-c4cc(Cl)c(F)cc4F)n2)OC[C@]3(C)C(N)=O)C2(F)CC2)cc2cc(Br)cnc12 [Example 1113] the EC50 was under 200 nM. With COc1cc(C(=O)NC[C@](O)(c2cc3c(c(-c4ccc(F)c(Cl)c4F)n2)OC[C@]3(C)C(N)=O)C2(F)CC2)cc2cc(Br)cnc12 [Example 1114] the EC50 was under 200 nM. Molecule COc1cc(C(=O)NC[C@](O)(c2cc3c(c(-c4ccc(F)cc4)n2)OC[C@]3(C)C(N)=O)C(F)(F)F)cc2cc(Br)c(C)nc12 [Example 1115] has an EC50 of under 200 nM. For COc1cc(C(=O)NC[C@](O)(c2cc3c(c(-c4ccc(F)cc4)n2)OC[C@]3(C)C(N)=O)C2CC2)cc2cc(Br)c(C)nc12 [Example 1117], the EC50 was under 200 nM. For COc1cc(C(=O)NC[C@](O)(c2cc3c(c(-c4ccc(F)cc4)n2)OC[C@]3(C)C(N)=O)C2(F)CC2)cc2cc(Br)c(C)nc12 [Example 1118], the EC50 was under 200 nM. In the case of COc1cc(C(=O)NC[C@](O)(c2cc3c(c(-c4ccc(F)c(Cl)c4F)n2)OC[C@]3(C)C(N)=O)C2CC2)cc2cc(Br)c(C)nc12 [Example 1129], the EC50 is reported as under 200 nM. Molecule COc1cc(C(=O)NC[C@](O)(c2cc3c(c(-c4ccc5c(c4)OC(F)(F)O5)n2)OC[C@]3(C)C(N)=O)C2CC2)cc2cc(Br)c(C)nc12 [Example 1130] has an EC50 of under 200 nM. In the case of COc1cc(C(=O)NC[C@](O)(c2cc3c(c(-c4cc(Cl)c(F)cc4F)n2)OC[C@]3(C)C(N)=O)C2CC2)cc2sc(C)nc12 [Example 1131], the EC50 is reported as under 200 nM. COc1cc(C(=O)NC[C@](O)(c2cc3c(c(-c4cc(Cl)c(F)cc4F)n2)OC[C@]3(C)C(N)=O)C2CC2)cc2sc(C3CC3)nc12 [Example 1132] showed an EC50 of under 200 nM. CCNC(=O)[C@@]1(C)COc2c1cc([C@@](O)(CNC(=O)c1cc(OC)c3nn(C4CC4)cc3c1)C(F)(F)F)nc2-c1ccc(F)cc1 [Example 1171] was tested, and the EC50 was under 200 nM. For COc1cc(C(=O)NC[C@](O)(c2cc3c(c(-c4ccc(F)cc4)n2)OC[C@]3(C)C(=O)NC2CC2)C(F)(F)F)cc2cn(C3CC3)nc12 [Example 1172], the EC50 was under 200 nM. COc1cc(C(=O)NC[C@](O)(c2cc3c(c(-c4ccc(F)cc4)n2)OC[C@]3(C)C(=O)NCC(F)(F)F)C(F)(F)F)cc2cn(C3CC3)nc12 [Example 1173] gave an EC50 of under 200 nM.

Same assay, conditions: human respiratory syncytial virus, genotype A “Long” strain RSV, MOI 0.1, CPE protection, read-out: Human RSV-A (“Long”)
Molecule COc1cc(C(=O)NC[C@@](O)(c2cc3c(c(-c4ccc(F)c(C)c4)n2)OC[C@]3(C)C(N)=O)C(F)(F)F)cc2cn(C3CC3)nc12 [Example 635] has an EC50 of over 200 nM. C[C@]1(C(N)=O)COc2c1cc([C@@](O)(CNC(=O)c1ccnc3cc[nH]c13)C(F)(F)F)nc2-c1ccc2c(c1)OC(F)(F)O2 [Example 701] gave an EC50 of under 200 nM. With Cc1ccn2cc(C(=O)NC[C@](O)(c3cc4c(c(-c5ccc(F)cc5)n3)OC[C@]4(C)C(N)=O)C(F)(F)F)nc2c1 [Example 805] the EC50 was over 200 nM. In the case of Cc1cccn2cc(C(=O)NC[C@](O)(c3cc4c(c(-c5ccc(F)cc5)n3)OC[C@]4(C)C(N)=O)C(F)(F)F)nc12 [Example 806], the EC50 is reported as over 200 nM. Cc1cccc2nc(C(=O)NC[C@](O)(c3cc4c(c(-c5ccc(F)cc5)n3)OC[C@]4(C)C(N)=O)C(F)(F)F)cn12 [Example 807] was tested, and the EC50 was over 200 nM. In the case of C[C@]1(C(N)=O)COc2c1cc([C@@](O)(CNC(=O)c1cn3cc(Cl)ccc3n1)C(F)(F)F)nc2-c1ccc(F)cc1 [Example 808], the EC50 is reported as under 200 nM. C[C@]1(C(N)=O)COc2c1cc([C@@](O)(CNC(=O)c1cn3cc(F)ccc3n1)C(F)(F)F)nc2-c1ccc(F)cc1 [Example 809] gave an EC50 of over 200 nM. For C[C@]1(C(N)=O)COc2c1cc([C@@](O)(CNC(=O)c1cn3cc(C(F)(F)F)ccc3n1)C(F)(F)F)nc2-c1ccc(F)cc1 [Example 810], the EC50 was over 200 nM. CC(C)Oc1ccc2nc(C(=O)NC[C@](O)(c3cc4c(c(-c5ccc(F)cc5)n3)OC[C@]4(C)C(N)=O)C(F)(F)F)cn2c1 [Example 812] gave an EC50 of over 200 nM. Molecule C[C@]1(C(N)=O)COc2c1cc([C@@](O)(CNC(=O)c1cn3cc(OC4CC4)ccc3n1)C(F)(F)F)nc2-c1ccc(F)cc1 [Example 813] has an EC50 of over 200 nM. C[C@]1(C(N)=O)COc2c1cc([C@@](O)(CNC(=O)c1cn3cc(OC(F)(F)F)ccc3n1)C(F)(F)F)nc2-c1ccc(F)cc1 [Example 814] showed an EC50 of over 200 nM.
